Test results taken from US9271960B2, “Tetrahydrocarbazoles as active agents for inhibiting VEGF production by translational control” (PTC Therapeutics, Inc., priority 2004, dated 2016).

Tested on: VEGF
Test: Hypoxia-inducible endogenous VEGF expression ELISA in HeLa cells
Type: cell-based
Settings: Homo sapiens, HeLa, compounds 1-155, hypoxic conditions (1% O2), VEGF protein by ELISA, read-out: ELISA Activity
Outline: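 HeLa cells held 24–48 h in hypoxia (1% O2) with a concentration series of compound; VEGF secreted into media quantified by ELISA against a standard curve. Parallel Cell Titer Glo viability under identical conditions gives CC50; EC50 from percent-inhibition curves.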

| EC50 [nM] | Compound |
| --- | --- |
| > 1000 | NC(=O)c1ccc2[nH]c3c(c2c1)CCCC3n1cccc1 (stereo not shown) [Compound 119, 8-Pyrrol-1-yl-6,7,8,9-tetrahydro-5H-carbazole-3-carboxylic acid amide] |
| > 1000 | O=C(O)c1ccc2[nH]c3c(c2c1)CCCC3n1cccc1 (stereo not shown) [Compound 120, 8-Pyrrol-1-yl-6,7,8,9-tetrahydro-5H-carbazole-3-carboxylic acid] |
| > 1000 | Brc1ccc2c3c([nH]c2c1)C(n1cccc1)CCC3 (stereo not shown) [Compound 121, 7-Bromo-1-pyrrol-1-yl-2,3,4,9-tetrahydro-1H-carbazole] |
| > 1000 | Brc1ccc2[nH]c3c(c2c1)CCCC3NCCN1CCOCC1 (stereo not shown) [Compound 122, (6-Bromo-2,3,4,9-tetrahydro-1H-carbazol-1-yl)-(2-morpholin-4-yl-ethyl)-amine] |
| 10 to 40 | O=C(NC1CCCc2c1[nH]c1ccc(Br)cc21)c1ccco1 (stereo not shown) [Compound 123, Furan-2-carboxylic acid (6-bromo-2,3,4,9-tetrahydro-1H-carbazol-1-yl)-amide] |
| 200 to 1000 | O=C(NC1CCCc2c1[nH]c1ccc(Br)cc21)c1cc2ccccc2o1 (stereo not shown) [Compound 124, Benzofuran-2-carboxylic acid (6-bromo-2,3,4,9-tetrahydro-1H-carbazol-1-yl)-amide] |
| 40 to 200 | O=C(NC1CCCc2c1[nH]c1ccc(Br)cc21)c1ccc(-c2ccc(Cl)cc2)o1 (stereo not shown) [Compound 125, 5-(4-Chloro-phenyl)-furan-2-carboxylic acid (6-bromo-2,3,4,9-tetrahydro-1H-carbazol-1-yl)-amide] |
| 40 to 200 | O=C(NC1CCCc2c1[nH]c1ccc(Br)cc21)c1ccc[nH]1 (stereo not shown) [Compound 126, 1H-Pyrrole-2-carboxylic acid (6-bromo-2,3,4,9-tetrahydro-1H-carbazol-1-yl)-amide] |
| 40 to 200 | O=C(NC1CCCc2c1[nH]c1ccc(Br)cc21)c1cc2ccccc2[nH]1 (stereo not shown) [Compound 127, 1H-lndole-2-carboxylic acid (6-bromo-2,3,4,9-tetrahydro-1H-carbazol-1-yl)-amide] |
| < 10 | O=C(NC1CCCc2c1[nH]c1ccc(Br)cc21)c1cccs1 (stereo not shown) [Compound 128, Thiophene-2-carboxylic acid (6-bromo-2,3,4,9-tetrahydro-1H-carbazol-1-yl)-amide] |
| < 10 | Brc1ccc2[nH]c3c(c2c1)CCCC3c1nc2ccccc2o1 (stereo not shown) [Compound 129, 1-Benzooxazol-2-yl-6-bromo-2,3,4,9-tetrahydro-1H-carbazole] |
| 10 to 40 | COc1ccc(C(=O)NC2CCCc3c2[nH]c2ccc(Br)cc32)cc1 (stereo not shown) [Compound 130, N-(6-Bromo-2,3,4,9-tetrahydro-1H-carbazol-1-yl)-4-methoxy-benzamide] |
| 10 to 40 | O=C(NC1CCCc2c1[nH]c1ccc(Br)cc21)c1ccc(C(F)(F)F)cc1 (stereo not shown) [Compound 131, N-(6-Bromo-2,3,4,9-tetrahydro-1H-carbazol-1-yl)-4-trifluoromethyl-benzamide] |
| 10 to 40 | N#Cc1ccc(C(=O)NC2CCCc3c2[nH]c2ccc(Br)cc32)cc1 (stereo not shown) [Compound 132, N-(6-Bromo-2,3,4,9-tetrahydro-1H-carbazol-1-yl)-4-cyano-benzamide] |
| < 10 | O=C(NC1CCCc2c1[nH]c1ccc(Br)cc21)c1ccc(F)cc1F (stereo not shown) [Compound 133, N-(6-Bromo-2,3,4,9-tetrahydro-1H-carbazol-1-yl)-2,4-difluoro-benzamide] |
| 10 to 40 | O=C(NC1CCCc2c1[nH]c1ccc(Br)cc21)c1ccc(Cl)cc1 (stereo not shown) [Compound 134, N-(6-Bromo-2,3,4,9-tetrahydro-1H-carbazol-1-yl)-4-chloro-benzamide] |
| 10 to 40 | Clc1ccc(NC2CCCc3c2[nH]c2ccc(Cl)cc32)cc1 (stereo not shown) [Compound 135, (4-Chloro-phenyl)-(6-chloro-2,3,4,9-tetrahydro-1H-carbazol-1-yl)-amine] |
| < 10 | COc1ccc(NC2CCCc3c2[nH]c2ccc(Cl)cc32)cc1 (stereo not shown) [Compound 136, (6-Chloro-2,3,4,9-tetrahydro-1H-carbazol-1-yl)-(4-methoxy-phenyl)-amine] |
| < 10 | FC(F)(F)c1ccc(NC2CCCc3c2[nH]c2ccc(Cl)cc32)cc1 (stereo not shown) [Compound 137, (6-Chloro-2,3,4,9-tetrahydro-1H-carbazol-1-yl)-(4-trifluoromethyl-phenyl)-amine] |

| EC50 [nM] | Compound |
| --- | --- |
| 10 to 40 | FC(F)(F)c1ccc2[nH]c3c(c2c1)CCCC3Nc1ccc(Cl)cc1 (stereo not shown) [Compound 138, (4-Chloro-phenyl)-(6-trifluoromethyl-2,3,4,9-tetrahydro-1H-carbazol-1-yl)-amine] |
| 10 to 40 | COc1ccc(NC2CCCc3c2[nH]c2ccc(C(F)(F)F)cc32)cc1 (stereo not shown) [Compound 139, (4-Methoxy-phenyl)-(6-trifluoromethyl-2,3,4,9-tetrahydro-1H-carbazol-1-yl)-amine] |
| 10 to 40 | FC(F)(F)c1ccc(NC2CCCc3c2[nH]c2ccc(C(F)(F)F)cc32)cc1 (stereo not shown) [Compound 140, (4-Trifluoromethyl-phenyl)-(6-trifluoromethyl-2,3,4,9-tetrahydro-1H-carbazol-1-yl)-amine] |
| < 10 | Brc1ccc2[nH]c3c(c2c1)CCCC3Nc1ncccn1 (stereo not shown) [Compound 141, (6-Bromo-2,3,4,9-tetrahydro-1H-carbazol-1-yl)-pyrimidin-2-yl-amine] |
| 10 to 40 | Brc1ccc2[nH]c3c(c2c1)CCCC3c1nc2ccccc2[nH]1 (stereo not shown) [Compound 142, 1-(1H-Benzoimidazol-2-yl)-6-bromo-2,3,4,9-tetrahydro-1H-carbazole] |
| 40 to 200 | O=C(NC1CCCc2c1[nH]c1ccc(Cl)cc21)c1cccs1 (stereo not shown) [Compound 143, Thiophene-2-carboxylic acid (6-chloro-2,3,4,9-tetrahydro-1H-carbazol-1-yl)-amide] |
| 40 to 200 | O=C(NC1CCCc2c1[nH]c1ccc(Cl)cc21)c1ccco1 (stereo not shown) [Compound 144, Furan-2-carboxylic acid (6-chloro-2,3,4,9-tetrahydro-1H-carbazol-1-yl)-amide] |
| 10 to 40 | COc1ccc(C(=O)NC2CCCc3c2[nH]c2ccc(Cl)cc32)cc1 (stereo not shown) [Compound 145, N-(6-Chloro-2,3,4,9-tetrahydro-1H-carbazol-1-yl)-4-methoxy-benzamide] |
| 40 to 200 | O=C(NC1CCCc2c1[nH]c1ccc(Br)cc21)c1ccc([N+](=O)[O-])o1 (stereo not shown) [Compound 146, 5-Nitro-furan-2-carboxylic acid (6-bromo-2,3,4,9-tetrahydro-1H-carbazol-1-yl)-amide] |
| 40 to 200 | O=C(NC1CCCc2c1[nH]c1ccc(Br)cc21)C1CC1 (stereo not shown) [Compound 147, Cyclopropanecarboxylic acid (6-bromo-2,3,4,9-tetrahydro-1H-carbazol-1-yl)-amide] |
| < 10 | O=C1c2sccc2CN1C1CCCc2c1[nH]c1ccc(Cl)cc21 (stereo not shown) [Compound 148, 5-(6-Chloro-2,3,4,9-tetrahydro-1H-carbazol-1-yl)-4,5-dihydro-thieno[2,3-c]pyrrol-6-one] |
| 40 to 200 | O/N=C/c1ccn(C2CCCc3c2[nH]c2ccc(Br)cc32)c1 (stereo not shown) [Compound 149, 1-(6-Bromo-2,3,4,9-tetrahydro-1H-carbazol-1-yl)-1H-pyrrole-3-carbaldehyde oxime] |
| 10 to 40 | O=C(NC1CCCc2c1[nH]c1ccc(Br)cc21)c1ccno1 (stereo not shown) [Compound 150, isoxazole-5-carboxylic acid (6-bromo-2,3,4,9-tetrahydro-1H-carbazol-1-yl)-amide] |
| 10 to 40 | Cc1cc(C(=O)NC2CCCc3c2[nH]c2ccc(Br)cc32)no1 (stereo not shown) [Compound 151, 5-Methyl-isoxazole-3-carboxylic acid (6-bromo-2,3,4,9-tetrahydro-1H-carbazol-1-yl)-amide] |
| 200 to 1000 | O=C(NC1CCCc2c1[nH]c1ccc(Br)cc21)c1ccoc1 (stereo not shown) [Compound 152, Furan-3-carboxylic acid (6-bromo-2,3,4,9-tetrahydro-1H-carbazol-1-yl)-amide] |
| 40 to 200 | O=C(NC1CCCc2c1[nH]c1ccc(Br)cc21)c1ccsc1 (stereo not shown) [Compound 153, Thiophene-3-carboxylic acid (6-bromo-2,3,4,9-tetrahydro-1H-carbazol-1-yl)-amide] |
| < 10 | O=C(NC1CCCc2c1[nH]c1ccc(Br)cc21)c1ccc(Cl)s1 (stereo not shown) [Compound 154, 5-Chloro-thiophene-2-carboxylic acid (6-bromo-2,3,4,9-tetrahydro-1H-carbazol-1-yl)-amide] |
| 10 to 40 | Cn1cccc1C(=O)NC1CCCc2c1[nH]c1ccc(Br)cc21 (stereo not shown) [Compound 155, 1-Methyl-1H-pyrrole-2-carboxylic acid (6-bromo-2,3,4,9-tetrahydro-1H-carbazol-1-yl)-amide] |

Same assay, conditions: Homo sapiens, HeLa, purchased compounds 156-188, hypoxic conditions, VEGF protein by ELISA, read-out: ELISA Activity

| EC50 [nM] | Compound |
| --- | --- |
| < 10 | Brc1ccc2[nH]c3c(c2c1)CCCC3n1cccc1 (stereo not shown) [Compound 156, 6-Bromo-1-pyrrol-1-yl-2,3,4,9-tetrahydro-1H-carbazole] |
| 10 to 40 | O=[N+]([O-])c1ccc2[nH]c3c(c2c1)CCCC3NC1CCC(c2ccccc2)CC1 (stereo not shown) [Compound 157] |
| 200 to 1000 | Cc1ccc2[nH]c3c(c2c1)CCCC3NCC12CC3CC(CC(C3)C1)C2 (stereo not shown) [Compound 159, Adamantan-1-ylmethyl-(6-methyl-2,3,4,9-tetrahydro-1H-carbazol-1-yl)-amine] |
| 200 to 1000 | Cc1ccc2[nH]c3c(c2c1)CCCC3NCc1ccc(Cl)cc1 (stereo not shown) [Compound 160, (4-Chloro-benzyl)-(6-methyl-2,3,4,9-tetrahydro-1H-carbazol-1-yl)-amine] |
| 200 to 1000 | Cc1ccc2[nH]c3c(c2c1)CCCC3NC1CCCCC1 (stereo not shown) [Compound 161, Cyclohexyl-(6-methyl-2,3,4,9-tetrahydro-1H-carbazol-1-yl)-amine] |

| Compound | EC50 [nM] |
| --- | --- |
| Cc1ccc2c(c1)c1c3n2CCN(N=O)C3CCC1 (stereo not shown) [Compound 162, 8-Methyl-3-nitroso-2,3,3a,4,5,6-hexahydro-1H-pyrazino[3,2,1-jk]carbazole] | 200 to 1000 |

Same assay, conditions: Homo sapiens, HeLa, purchased compounds 156-188, hypoxic conditions, VEGF protein by ELISA, read-out: ELISA EC50

| EC50 [nM] | Compound |
| --- | --- |
| 10 | Brc1ccc2[nH]c3c(c2c1)CCCC3n1cccc1 (stereo not shown) [Compound 156, 6-Bromo-1-pyrrol-1-yl-2,3,4,9-tetrahydro-1H-carbazole] |
| 14.9 | O=[N+]([O-])c1ccc2[nH]c3c(c2c1)CCCC3NC1CCC(c2ccccc2)CC1 (stereo not shown) [Compound 157] |
| 360 | Cc1ccc2[nH]c3c(c2c1)CCCC3NCC12CC3CC(CC(C3)C1)C2 (stereo not shown) [Compound 159, Adamantan-1-ylmethyl-(6-methyl-2,3,4,9-tetrahydro-1H-carbazol-1-yl)-amine] |
| 420 | Cc1ccc2[nH]c3c(c2c1)CCCC3NCc1ccc(Cl)cc1 (stereo not shown) [Compound 160, (4-Chloro-benzyl)-(6-methyl-2,3,4,9-tetrahydro-1H-carbazol-1-yl)-amine] |
| 670 | Cc1ccc2[nH]c3c(c2c1)CCCC3NC1CCCCC1 (stereo not shown) [Compound 161, Cyclohexyl-(6-methyl-2,3,4,9-tetrahydro-1H-carbazol-1-yl)-amine] |

| Compound | EC50 [nM] |
| --- | --- |
| Cc1ccc2c(c1)c1c3n2CCN(N=O)C3CCC1 (stereo not shown) [Compound 162, 8-Methyl-3-nitroso-2,3,3a,4,5,6-hexahydro-1H-pyrazino[3,2,1-jk]carbazole] | 890 |
